≈ marks a conversion by molar mass, not a printed value. Like-named read-outs stand apart in the source and are kept apart here.
How the values were obtained:
N. gonorrhoeae isolates = assay: MIC against panel of N. gonorrhoeae clinical isolates; assay type: cell-based, Neisseria gonorrhoeae; details: for MIC50 / MIC90 / MIC: Neisseria gonorrhoeae; for MIC50: read-out: MIC50; for MIC90: read-out: MIC90; for MIC: 103 N. gonorrhoeae isolates, read-out: highest MIC value
[1] = tested on: resistant N. gonorrhoeae isolates; assay: MIC against resistant N. gonorrhoeae isolates by agar dilution; assay type: cell-based, Neisseria gonorrhoeae
L. crispatus = assay: MIC against commensal vaginal Lactobacillus strains; assay type: cell-based, Lactobacillus crispatus; details: for MIC: Lactobacillus crispatus; for MIC Range: Table 6, L. crispatus (3 strains)
From the text: (§1) N. gonorrhoeae pathogenesis greatly depends on colonization of the reproductive tract. One of the natural barriers of such colonization is an intact healthy microbiome. Species of lactobacilli present in the genitourinary tract play a significant role in hindering colonization by Neisseria(1).
(§2) A healthy vaginal microbiome that is dominated by Lactobacillus spp. is less susceptible to N. gonorrhoeae infection and other sexually transmitted diseases (STDs). […] We tested the activity of azoles against important members of healthy vaginal microbiota that inhibit N. gonorrhoeae colonization.

L. gasseri = assay: as above; assay type: cell-based, Lactobacillus gasseri; details: for MIC: Lactobacillus gasseri; for MIC Range: Table 6, L. gasseri (4 strains)
From the text: as §1, §2

L. jensenii = assay: as above; assay type: cell-based, Lactobacillus jensenii; details: for MIC: Lactobacillus jensenii; for MIC Range: Table 6, L. jensenii (7 strains)
From the text: as §1, §2

L. johnsonii = assay: as above; assay type: cell-based, Lactobacillus johnsonii; details: for MIC: Lactobacillus johnsonii, L. johnsonii HM-643; for MIC Range: Table 6, L. johsonii (2 strains)
From the text: as §1, §2

[2] = tested on: commensal vaginal lactobacilli strains; assay: MIC against all commensal vaginal Lactobacillus strains tested; assay type: cell-based, Lactobacillus spp.; details: read-out: MIC
From the text: as §1, §2

N. gonorrhoeae [3] = assay: Post-antibiotic effect (PAE) against N. gonorrhoeae; assay type: cell-based, Neisseria gonorrhoeae; details: 1 h exposure at 10×MIC
From the text: Determining the PAE of a new antimicrobial is an important step for dosing and has clinical importance.

[4] = MIC against normal gut microbiota; assay type: cell-based
From the text: (§3) Disrupting the intestinal microbiota using broad-spectrum antimicrobial therapy increases the susceptibility of hosts to C. difficile colonization.

Bacteroides dorei = assay: MIC against normal gut microbiota; assay type: cell-based; details: Bacteroides dorei (2 strains)
From the text: as §3

[5] = tested on: Bifidobacterium angulatum; assay: MIC against normal gut microbiota; assay type: cell-based; details: Bifidobacterium angulatum (1 strain)
From the text: as §3

Enterococcus faecalis = assay: MIC against normal gut microbiota; assay type: cell-based; details: Enterococcus faecalis (1 strain)
From the text: as §3

Enterococcus faecium = assay: MIC against normal gut microbiota; assay type: cell-based; details: Enterococcus faecium (1 strain)
From the text: as §3

Escherichia coli = assay: MIC against normal gut microbiota; assay type: cell-based; details: Escherichia coli (1 strain)
From the text: as §3

Lactobacillus brevis = assay: MIC against normal gut microbiota; assay type: cell-based; details: Lactobacillus brevis (1 strain)
From the text: as §3

Lactobacillus casei = assay: MIC against normal gut microbiota; assay type: cell-based; details: Lactobacillus casei (1 strain)
From the text: as §3

Lactobacillus rhamnosus = assay: MIC against normal gut microbiota; assay type: cell-based; details: Lactobacillus rhamnosus (1 strain)
From the text: as §3

Staphylococcus aureus = assay: MIC against normal gut microbiota; assay type: cell-based; details: Staphylococcus aureus (1 strain)
From the text: as §3

N. meingitidis = assay: MIC against Neisseria spp.; assay type: cell-based, Neisseria meningitidis; details: N. meingitidis (5 strains)
N. flavescens = assay: MIC against Neisseria spp.; assay type: cell-based; details: N. flavescens (1 strain)
From the text: (§4) Intrigued by the specificity and potent activity of azoles against N. gonorrhoeae, we evaluated the extent of the azoles' antibacterial activity against other Neisseria species (Table 8).

N. lactamica = assay: MIC against Neisseria spp.; assay type: cell-based; details: N. lactamica (1 strain)
From the text: as §4

N. mucosa = assay: MIC against Neisseria spp.; assay type: cell-based; details: N. mucosa (1 strain)
From the text: as §4

[6] = tested on: intracellular N. gonorrhoeae FA1090 in endocervical cells (End1/E6E7); details: literature statement [1, 3, 5]; cited from earlier work
Bacteroides fragilis = assay: MIC against normal gut microbiota; assay type: cell-based; details: Bacteroides fragilis (4 strains)
From the text: as §3

N. gonorrhoeae [7] = assay: Drug library screen against N. gonorrhoeae; assay type: cell-based, Neisseria gonorrhoeae; details: Johns Hopkins Clinical Compounds Library, MCE FDA-Approved Drug Library, Pharmakon library; killing in clinical range
From the text: To identify drugs capable of killing Neisseria gonorrhoeae, the Johns Hopkins Clinical Compounds Library (1514), the MCE FDA-Approved Drug Library (2441), and the Pharmakon library (1600) were screened against N. gonorrhoeae. Positive hits that are capable of killing Neisseria gonorrhoeae in clinical range were identified (itraconazole, ravuconazole and isavuconazole).

[8] = from single dose; cited from earlier work
[9] = Table 1, 104 N. gonorrhoeae isolates
[10] = Table 3, 103 N. gonorrhoeae isolates with different resistance profiles
[11] = Bacteroides adolescentis (2 strains)
[12] = panel of 84 N. gonorrhoeae clinical isolates

## CO/N=C(\C(=O)N[C@@H]1C(=O)N2C(C(=O)O)=C(CSc3nc(=O)c(=O)[nH]n3C)CS[C@H]12)c1csc(N)n1 [Ceftriaxone]
N. gonorrhoeae isolates; [9]
  MIC50: 0.03 µg/mL (≈ 0.0541 µM)
  MIC90: 0.06 µg/mL (≈ 0.108 µM)
  MIC Range: 0.001 to 2 µg/mL
N. gonorrhoeae isolates; [10]
  MIC50: 0.03 µg/mL (≈ 0.0541 µM)
  MIC90: 0.06 µg/mL (≈ 0.108 µM)
  MIC Range: 0.001 to 2 µg/mL
N. gonorrhoeae isolates
  MIC: 2 µg/mL (≈ 3.61 µM)
[1]; strain CDC-174, agar dilution
  MIC: 0.25 µg/mL (≈ 0.451 µM)
[1]; strain CDC-179, agar dilution
  MIC: 0.015 µg/mL (≈ 0.027 µM)
[1]; strain CDC-181, agar dilution
  MIC: 0.06 µg/mL (≈ 0.108 µM)
[1]; strain WHO-L, agar dilution
  MIC: 0.5 µg/mL (≈ 0.902 µM)
[1]; strain WHO-X, agar dilution
  MIC: 2 µg/mL (≈ 3.61 µM)
[1]; strain WHO-Y, agar dilution
  MIC: 1 µg/mL (≈ 1.8 µM)
[1]; strain WHO-Z, agar dilution
  MIC: 0.5 µg/mL (≈ 0.902 µM)
L. crispatus; L. crispatus HM-103
  MIC: 2 µg/mL (≈ 3.61 µM)
L. crispatus; L. crispatus HM-371
  MIC: 1 µg/mL (≈ 1.8 µM)
L. crispatus; L. crispatus HM-638
  MIC: 4 µg/mL (≈ 7.21 µM)
L. crispatus
  MIC Range: ≤1 to 2 µg/mL
L. gasseri; L. gasseri HM-407
  MIC: ≤ 0.5 µg/mL
L. gasseri; L. gasseri HM-642
  MIC: 2 µg/mL (≈ 3.61 µM)
L. gasseri; L. gasseri HM-644
  MIC: 1 µg/mL (≈ 1.8 µM)
L. gasseri; L. gasseri HM-647
  MIC: 1 µg/mL (≈ 1.8 µM)
L. gasseri
  MIC Range: ≤1 µg/mL
L. jensenii; L. jensenii HM-105
  MIC: ≤ 0.5 µg/mL
L. jensenii; L. jensenii HM-372
  MIC: ≤ 0.5 µg/mL
L. jensenii; L. jensenii HM-374
  MIC: 1 µg/mL (≈ 1.8 µM)
L. jensenii; L. jensenii HM-639
  MIC: ≤ 0.5 µg/mL
L. jensenii; L. jensenii HM-640
  MIC: ≤ 0.5 µg/mL
L. jensenii; L. jensenii HM-645
  MIC: ≤ 0.5 µg/mL
L. jensenii; L. jensenii HM-646
  MIC: ≤ 0.5 µg/mL
L. jensenii
  MIC Range: ≤1 to 2 µg/mL
L. johnsonii
  MIC: 2 µg/mL (≈ 3.61 µM)
  MIC Range: ≤1 µg/mL
[2]; all species/strains of Lactobacillus tested (Example 2)
  MIC: < 1 µg/mL
N. gonorrhoeae [3]; strain FA 1090
  PAE: 4 h
N. gonorrhoeae [3]; strain WHO P
  PAE: 8 h
N. gonorrhoeae [3]; strain WHO Y
  PAE: 6 h
[4]; [11]
  MIC Range: 0.125 µg/mL (≈ 0.225 µM)
[4]; Bacteroides breve (2 strains)
  MIC Range: 1 to 4 µg/mL
[4]; Bacteroides longum (2 strains)
  MIC Range: 4 µg/mL (≈ 7.21 µM)
Bacteroides dorei
  MIC Range: 4 to 16 µg/mL
[5]
  MIC Range: 0.125 µg/mL (≈ 0.225 µM)
Enterococcus faecalis
  MIC Range: 8 µg/mL (≈ 14.4 µM)
Enterococcus faecium
  MIC Range: 8 µg/mL (≈ 14.4 µM)
Escherichia coli
  MIC Range: 0.03 µg/mL (≈ 0.0541 µM)
Lactobacillus brevis
  MIC Range: 0.5 µg/mL (≈ 0.902 µM)
Lactobacillus casei
  MIC Range: 16 µg/mL (≈ 28.9 µM)
Lactobacillus rhamnosus
  MIC Range: 16 µg/mL (≈ 28.9 µM)
Staphylococcus aureus
  MIC Range: 2 µg/mL (≈ 3.61 µM)
N. meingitidis
  MIC Range: 0.004 to 0.008 µg/mL
N. flavescens
  MIC Range: 0.125 µg/mL (≈ 0.225 µM)
N. lactamica
  MIC Range: 0.125 µg/mL (≈ 0.225 µM)
N. mucosa
  MIC Range: 0.125 µg/mL (≈ 0.225 µM)
[6]
  ability to clear intracellular N. gonorrhoeae: unable to clear intracellular N. gonorrhoeae

## C[C@@H](c1nc(-c2ccc(C#N)cc2)cs1)[C@](O)(Cn1cncn1)c1ccc(F)cc1F [Ravuconazole]
N. gonorrhoeae isolates; [9]
  MIC50: 0.03 µg/mL (≈ 0.0686 µM)
  MIC90: 0.06 µg/mL (≈ 0.137 µM)
N. gonorrhoeae isolates; [10]
  MIC50: 0.03 µg/mL (≈ 0.0686 µM)
  MIC90: 0.06 µg/mL (≈ 0.137 µM)
  MIC Range: 0.002 to 0.25 µg/mL
N. gonorrhoeae isolates; [12]
  MIC50: 0.03 µg/mL (≈ 0.0686 µM)
  MIC90: 0.06 µg/mL (≈ 0.137 µM)
N. gonorrhoeae isolates
  MIC: 0.25 µg/mL (≈ 0.571 µM)
N. gonorrhoeae isolates; from Table 3 and Table 8
  fold more potent antimicrobial activity than isavuconazole: ≥ 125 fold
[1]; strain CDC-174, agar dilution
  MIC: 0.25 µg/mL (≈ 0.571 µM)
[1]; strain CDC-179, agar dilution
  MIC: 0.06 µg/mL (≈ 0.137 µM)
[1]; strain CDC-181, agar dilution
  MIC: 0.25 µg/mL (≈ 0.571 µM)
[1]; strain WHO-L, agar dilution
  MIC: 0.25 µg/mL (≈ 0.571 µM)
[1]; strain WHO-X, agar dilution
  MIC: 0.25 µg/mL (≈ 0.571 µM)
[1]; strain WHO-Y, agar dilution
  MIC: 0.25 µg/mL (≈ 0.571 µM)
[1]; strain WHO-Z, agar dilution
  MIC: 0.25 µg/mL (≈ 0.571 µM)
L. crispatus; L. crispatus HM-103
  MIC: > 256 µg/mL
L. crispatus; L. crispatus HM-371
  MIC: > 256 µg/mL
L. crispatus; L. crispatus HM-638
  MIC: > 256 µg/mL
L. crispatus
  MIC Range: ≥256 µg/mL
L. gasseri; L. gasseri HM-407
  MIC: > 256 µg/mL
L. gasseri; L. gasseri HM-642
  MIC: > 256 µg/mL
L. gasseri; L. gasseri HM-644
  MIC: > 256 µg/mL
L. gasseri; L. gasseri HM-647
  MIC: > 256 µg/mL
L. gasseri
  MIC Range: ≥256 µg/mL
L. jensenii; L. jensenii HM-105
  MIC: > 256 µg/mL
L. jensenii; L. jensenii HM-372
  MIC: > 256 µg/mL
L. jensenii; L. jensenii HM-374
  MIC: > 256 µg/mL
L. jensenii; L. jensenii HM-639
  MIC: > 256 µg/mL
L. jensenii; L. jensenii HM-640
  MIC: > 256 µg/mL
L. jensenii; L. jensenii HM-645
  MIC: > 256 µg/mL
L. jensenii; L. jensenii HM-646
  MIC: > 256 µg/mL
L. jensenii
  MIC Range: ≥256 µg/mL
L. johnsonii
  MIC: > 256 µg/mL
  MIC Range: ≥256 µg/mL
[2]; Lactobacillus, all strains of lactobacilli (Example 1 text)
  MIC: > 256 µg/mL
N. gonorrhoeae [3]; strain FA 1090
  PAE: 12 h
N. gonorrhoeae [3]; strain WHO P
  PAE: >16 h
N. gonorrhoeae [3]; strain WHO Y
  PAE: 16 h
[4]; [11]
  MIC Range: >256 µg/mL
[4]; Bacteroides breve (2 strains)
  MIC Range: >256 µg/mL
[4]; Bacteroides longum (2 strains)
  MIC Range: >256 µg/mL
Bacteroides dorei
  MIC Range: >256 µg/mL
Bacteroides fragilis
  MIC Range: >256 µg/mL
[5]
  MIC Range: >256 µg/mL
Enterococcus faecalis
  MIC Range: >256 µg/mL
Enterococcus faecium
  MIC Range: >256 µg/mL
Escherichia coli
  MIC Range: >256 µg/mL
Lactobacillus brevis
  MIC Range: >256 µg/mL
Lactobacillus casei
  MIC Range: >256 µg/mL
Lactobacillus rhamnosus
  MIC Range: >256 µg/mL
Staphylococcus aureus
  MIC Range: >256 µg/mL
N. meingitidis
  MIC Range: 0.004 to 0.008 µg/mL
N. flavescens
  MIC Range: 0.125 µg/mL (≈ 0.286 µM)
N. lactamica
  MIC Range: 0.03 µg/mL (≈ 0.0686 µM)
N. mucosa
  MIC Range: 0.125 µg/mL (≈ 0.286 µM)
N. gonorrhoeae [7]
  screening outcome: Positive hits
[8]
  half-life: up to 8 days

From patent US20250281464A1, “TREATMENT OF PATHOGENIC NEISSERIA SP. INFECTION WITH TRIAZOLE ANTIFUNGAL AGENTS” (Virginia Tech Intellectual Properties, Inc., priority 2022, published 2025)
